Data from PubChem BioAssay AID344 (DTP/NCI, 2004).
Where “and” joins values, the source holds several entries; their conditions need not be identical. Equal entries are not always repeated. Toxic doses and inconclusive results are not listed.

System: mice, LPC-1 plasma cell tumor ip, median survival T/C
Assay: NCI In Vivo Anticancer Drug Screen. Data for tumor model Lieberman Plasma Cell No. 1 (LPC-1) (intraperitoneal) in unknown mice
Settings: endpoint: median survival time, higher = longer survival
Description: The antitumor activity of compounds was measured in mice bearing transplantable tumors. Survival or tumor size were measured and the results are expressed as the measurement made in the treated group (T) divided by the measurement made in the vehicle treated control group (C). The tumor model used in this assay is Lieberman Plasma Cell No. 1 (LPC-1) (intraperitoneal) in unknown mice

[1] = dose: 3.0 mg/kg/injection, schedule: Q01DX028 (sc), vehicle: saline
[2] = dose: 5.0 mg/kg/injection, schedule: Q01DX028 (sc), vehicle: saline
[3] = dose: 8.4 mg/kg/injection, schedule: Q01DX028 (sc), vehicle: saline

In the case of `N[C@@H](Cc1ccc(N(CCCl)CCCl)cc1)C(=O)O`, the T/C (dose: 0.57 mg/kg/injection, schedule: Q01DX024 (oral), vehicle: carboxymethylcellulose (CMC)) is reported as 92 % of control, the T/C (dose: 0.64 mg/kg/injection, schedule: Q01DX028 (sc), vehicle: saline) is reported as 170 % of control and the T/C (dose: 0.65 mg/kg/injection, schedule: Q## X024 (sc), vehicle: saline) is reported as 96 % of control. For the same molecule, the T/C (dose: 1.07 mg/kg/injection, schedule: Q01DX028 (sc), vehicle: saline) was 107 % of control, the T/C (dose: 1.08 mg/kg/injection, schedule: Q01DX008 (sc), vehicle: saline) was 96 % of control and the T/C (dose: 1.08 mg/kg/injection, schedule: Q01DX009 (sc), vehicle: saline) was 103 % of control. The T/C (dose: 1.08 mg/kg/injection, schedule: Q## X024 (sc), vehicle: saline) was 96 % of control, the T/C (dose: 1.15 mg/kg/injection, schedule: Q01DX024 (oral), vehicle: carboxymethylcellulose (CMC)) was 100 % of control and the T/C (dose: 1.7 mg/kg/injection, schedule: Q01DX028 (sc), vehicle: saline) was 182 % of control. For the same molecule, the T/C (dose: 1.8 mg/kg/injection, schedule: Q01DX005 (sc), vehicle: saline) was 381 % of control, the T/C (dose: 1.8 mg/kg/injection, schedule: Q01DX008 (sc), vehicle: saline) was 100 % of control and the T/C (dose: 1.8 mg/kg/injection, schedule: Q01DX009 (sc), vehicle: saline) was 103 % of control. For the same molecule, the T/C (dose: 1.8 mg/kg/injection, schedule: Q## X024 (sc), vehicle: saline) was 103 % of control, the T/C (dose: 1.87 mg/kg/injection, schedule: Q01DX005 (oral), vehicle: carboxymethylcellulose (CMC)) was 88 % of control and the T/C (dose: 1.87 mg/kg/injection, schedule: Q## X015 (oral), vehicle: carboxymethylcellulose (CMC)) was 190 % of control. The T/C (dose: 1.9 mg/kg/injection, schedule: Q01DX005 (ip), vehicle: saline) was 161 % of control, the T/C (dose: 1.9 mg/kg/injection, schedule: Q## X015 (ip), vehicle: saline) was 105 % of control and the T/C (dose: 2.3 mg/kg/injection, schedule: Q01DX024 (oral), vehicle: carboxymethylcellulose (CMC)) was 91 % of control and 102 % of control. The T/C (dose: 2.9 mg/kg/injection, schedule: Q01DX028 (sc), vehicle: saline) was 155 % of control, the T/C (dose: 3.0 mg/kg/injection, schedule: Q01DX008 (sc), vehicle: saline) was 96 % of control and the T/C (dose: 3.0 mg/kg/injection, schedule: Q01DX009 (sc), vehicle: saline) was 100 % of control. The T/C [1] was 164 % of control and 167 % of control and 152 % of control, the T/C (dose: 3.0 mg/kg/injection, schedule: Q04DX003 (sc), vehicle: saline) was 109 % of control and the T/C (dose: 3.0 mg/kg/injection, schedule: Q## X024 (sc), vehicle: saline) was 96 % of control. For the same molecule, the T/C (dose: 3.75 mg/kg/injection, schedule: Q01DX005 (oral), vehicle: carboxymethylcellulose (CMC)) was 100 % of control and 104 % of control, the T/C (dose: 3.75 mg/kg/injection, schedule: Q## X010 (oral), vehicle: carboxymethylcellulose (CMC)) was 95 % of control and 97 % of control and the T/C (dose: 3.75 mg/kg/injection, schedule: Q## X015 (oral), vehicle: carboxymethylcellulose (CMC)) was 214 % of control and 117 % of control. The T/C (dose: 3.8 mg/kg/injection, schedule: Q## X010 (ip), vehicle: saline) was 214 % of control, the T/C (dose: 3.8 mg/kg/injection, schedule: Q## X015 (ip), vehicle: saline) was 202 % of control and the T/C (dose: 4.0 mg/kg/injection, schedule: Q01DX028 (sc), vehicle: methylcellulose (MC)) was 97 % of control. For the same molecule, the T/C (dose: 4.5 mg/kg/injection, schedule: Q01DX024 (oral), vehicle: carboxymethylcellulose (CMC)) was 88 % of control and 102 % of control, the T/C (dose: 5.0 mg/kg/injection, schedule: Q01DX008 (sc), vehicle: saline) was 96 % of control and the T/C (dose: 5.0 mg/kg/injection, schedule: Q01DX009 (sc), vehicle: saline) was 103 % of control. For the same molecule, the T/C (dose: 5.0 mg/kg/injection, schedule: Q01DX024 (ip), vehicle: saline) was 111 % of control, the T/C [2] was 104 % of control and 105 % of control and the T/C (dose: 5.0 mg/kg/injection, schedule: Q04DX003 (sc), vehicle: saline) was 166 % of control. The T/C (dose: 5.0 mg/kg/injection, schedule: Q## X024 (sc), vehicle: saline) was 96 % of control, the T/C (dose: 7.5 mg/kg/injection, schedule: Q01DX005 (oral), vehicle: carboxymethylcellulose (CMC)) was 94 % of control and 104 % of control and the T/C (dose: 7.5 mg/kg/injection, schedule: Q## X010 (oral), vehicle: carboxymethylcellulose (CMC)) was 91 % of control and 95 % of control. For the same molecule, the T/C (dose: 7.5 mg/kg/injection, schedule: Q## X015 (ip), vehicle: saline) was 108 % of control, the T/C (dose: 8.4 mg/kg/injection, schedule: Q01DX005 (sc), vehicle: saline) was 96 % of control and the T/C (dose: 8.4 mg/kg/injection, schedule: Q01DX008 (sc), vehicle: saline) was 96 % of control. The T/C (dose: 8.4 mg/kg/injection, schedule: Q01DX009 (sc), vehicle: saline) was 100 % of control, the T/C [3] was 100 % of control and the T/C (dose: 8.4 mg/kg/injection, schedule: Q04DX003 (sc), vehicle: saline) was 118 % of control. For the same molecule, the T/C (dose: 9.0 mg/kg/injection, schedule: Q01DX024 (oral), vehicle: carboxymethylcellulose (CMC)) was 88 % of control and 90 % of control, the T/C (dose: 10.0 mg/kg/injection, schedule: Q01DX024 (ip), vehicle: saline) was 94 % of control and the T/C (dose: 14.0 mg/kg/injection, schedule: Q04DX003 (sc), vehicle: saline) was 109 % of control. For the same molecule, the T/C (dose: 15.0 mg/kg/injection, schedule: Q01DX005 (ip), vehicle: saline) was 91 % of control, the T/C (dose: 15.0 mg/kg/injection, schedule: Q## X010 (ip), vehicle: saline) was 88 % of control and the T/C (dose: 15.0 mg/kg/injection, schedule: Q## X010 (oral), vehicle: carboxymethylcellulose (CMC)) was 97 % of control. The T/C (dose: 15.0 mg/kg/injection, schedule: Q## X015 (ip), vehicle: saline) was 88 % of control, the T/C (dose: 15.0 mg/kg/injection, schedule: Q## X015 (oral), vehicle: carboxymethylcellulose (CMC)) was 88 % of control and 90 % of control and the T/C (dose: 18.0 mg/kg/injection, schedule: Q01DX001 (ip), vehicle: saline) was 123 % of control. For the same molecule, the T/C (dose: 19.0 mg/kg/injection, schedule: Q01DX001 (oral), vehicle: carboxymethylcellulose (CMC)) was 90 % of control, the T/C (dose: 23.0 mg/kg/injection, schedule: Q04DX003 (sc), vehicle: saline) was 103 % of control and the T/C (dose: 30.0 mg/kg/injection, schedule: Q01DX005 (oral), vehicle: carboxymethylcellulose (CMC)) was 88 % of control and 90 % of control. For the same molecule, the T/C (dose: 30.0 mg/kg/injection, schedule: Q## X015 (oral), vehicle: carboxymethylcellulose (CMC)) was 90 % of control, the T/C (dose: 37.5 mg/kg/injection, schedule: Q01DX001 (ip), vehicle: saline) was 94 % of control and the T/C (dose: 39.0 mg/kg/injection, schedule: Q01DX001 (sc), vehicle: saline) was 96 % of control. The T/C (dose: 60.0 mg/kg/injection, schedule: Q01DX005 (oral), vehicle: carboxymethylcellulose (CMC)) was 88 % of control, the T/C (dose: 65.0 mg/kg/injection, schedule: Q01DX001 (ip), vehicle: saline) was 88 % of control and the T/C (dose: 65.0 mg/kg/injection, schedule: Q01DX001 (sc), vehicle: saline) was 96 % of control.
With `CC[C@H]1CN2CCc3cc(OC)c(OC)cc3[C@@H]2C[C@@H]1C[C@H]1NCCc2cc(OC)c(OC)cc21` the T/C (dose: 1.0 mg/kg/injection, schedule: Q01DX028 (sc), vehicle: saline) was 106 % of control, the T/C (dose: 2.0 mg/kg/injection, schedule: Q01DX028 (sc), vehicle: saline) was 106 % of control and the T/C (dose: 4.0 mg/kg/injection, schedule: Q01DX028 (sc), vehicle: saline) was 94 % of control.
In the case of `O=NN(CCCl)C(=O)NCCCl`, the T/C (dose: 0.65 mg/kg/injection, schedule: Q01DX028 (sc), vehicle: saline) is reported as 109 % of control, the T/C (dose: 1.08 mg/kg/injection, schedule: Q01DX028 (sc), vehicle: saline) is reported as 107 % of control and the T/C (dose: 2.4 mg/kg/injection, schedule: Q01DX028 (sc), vehicle: saline) is reported as 157 % of control. The T/C [1] was 157 % of control and 185 % of control and the T/C [2] was 195 % of control and 202 % of control.
With `O=C(O)c1[nH]c(=O)[nH]c(=O)c1F` the T/C (dose: 1.8 mg/kg/injection, schedule: Q01DX028 (sc), vehicle: saline) was 180 % of control, the T/C [1] was 123 % of control and the T/C [2] was 119 % of control. The T/C [3] was 97 % of control and 114 % of control, the T/C (dose: 14.0 mg/kg/injection, schedule: Q01DX028 (sc), vehicle: saline) was 93 % of control and 104 % of control and the T/C (dose: 23.0 mg/kg/injection, schedule: Q01DX028 (sc), vehicle: saline) was 95 % of control and 102 % of control. For the same molecule, the T/C (dose: 39.0 mg/kg/injection, schedule: Q01DX028 (sc), vehicle: saline) was 93 % of control and the T/C (dose: 65.0 mg/kg/injection, schedule: Q01DX028 (sc), vehicle: saline) was 88 % of control.
In the case of `COc1ccc2c(c1)C(C)=CC(C)(C)N2`, the T/C (dose: 200.0 mg/kg/injection, schedule: Q01DX028 (sc), vehicle: steriod suspending solution) is reported as 110 % of control and the T/C (dose: 400.0 mg/kg/injection, schedule: Q01DX028 (sc), vehicle: steriod suspending solution) is reported as 154 % of control.
For `CS(=O)(=O)OCCCCCOS(C)(=O)=O`, the T/C (dose: 10.0 mg/kg/injection, schedule: Q01DX028 (sc), vehicle: water) was 107 % of control, the T/C (dose: 40.0 mg/kg/injection, schedule: Q01DX028 (sc), vehicle: water) was 107 % of control and the T/C (dose: 44.0 mg/kg/injection, schedule: Q01DX028 (sc), vehicle: carboxymethylcellulose (CMC)) was 120 % of control.
